One assay deals with ALPK1 (Homo sapiens (Human), UniProt Q96QP1). Kind of assay: ALPK1 in vitro kinase assay (HTRF of TIFA phosphorylation). Type of assay: biochemical. The procedure: ALPK1 kinase activity was measured in an in vitro assay using ADP-Heptose as the ALPK1 ligand and activator of its kinase activity and TIFA protein as the ALPK1 phosphorylation substrate. Since phosphorylated TIFA proteins oligomerize, Homogeneous Time-Resolved Fluorescence (HTRF) was used to measure protein:protein interaction between HA-tagged TIFA proteins as an indicator of TIFA phosphorylation.
In brief, dose-response studies were performed with HEK293 cells cultured in Dulbecco's Modified Eagle Medium (DMEM) supplemented 10% fetal bovine serum (FBS, Hyclone™) containing antibiotics (pen/strep, G418) in 384-well assay plates. Each well contained 0.1 mg TIFA, ALPK1 (2 nM final concentration in reaction mixture) and kinase buffer (100 mM of HEPES pH 7.4, 4 mM DTT, 40 mM MgCl2, 20 mM of β-Glycerol phosphate disodium salt, 0.4 mM of Na3VO4, 0.16 mg/mL). Titrations of the test compounds were prepared in dimethylsulphoxide (DMSO). The reaction was initiated by addition of ATP and ADP-Heptose.
For HTRF, samples were incubated with a Tb cryptate-labeled anti-HA antibody for capturing HA-tagged proteins according to the manufacturer's instructions (PerkinElmer™, CisBio™) and the fluorescence signal was quantified (Tecan Infinite F NANO+). HTRF signals were calculated as the HTRF ratio (ratio of fluorescence measured at 665 nm and 620 nm)×104 (thereby using the signal at 620 nm as an internal standard).
IC50 values were determined using 3- or 4-parameter logistic equation using GraphPad Prism version 6.00. The reference compound, A027, was used as a positive control for each plate.

In assay [1] the test system is ALPK1-TIFA-IL1β pathway in THP-1-derived macrophage cells. The assay can be described thus: PMA-differentiated THP-1 cell based assay (IL1β mRNA after ALPK1 agonist). The settings on record: Homo sapiens; PMA-differentiated THP-1 cells, 2 h pretreatment, 4 h ALPK1 agonist; read-out: IC50 of IL1β mRNA induced by ALPK1 activation. The procedure: Peripheral blood mononuclear cells (PBMCs) from Kawasaki patients show activation of ALPK1-TIFA-IL1β pathway. […] THP-1 cells were cultured in RPMI 1640 containing 10% heat inactivated FBS, penicillin (100 units/ml) and streptomycin ([…]), and maintained in a humidified incubator with 95% atmospheric air and 5% CO2. Prior to the experiment, THP-1 cells were seeded into 24-well flat-bottom plate at a cell density of […]. Phorbol myristate acetate (PMA; 50 ng/mil) was used to treat THP-i cells for 48 h, and then THP-1-derived macrophages were obtained. […] Total RNA was extracted using the TRIzol method and reverse-transcribed. The mRNA expression levels IL1β were detected by SYBR green gene expression assays. Expression levels of mRNA were normalized to GAPDH. Relative expression was calculated by comparing to vehicle control and the values were plotted as fold induction. All activity results were expressed as the mean of triplicate determinations.

Assay [2] relates to ALPK1-dependent innate immunity gene expression. The assay can be described thus: Inhibition of ALPK1 in coronary artery, aorta and heart muscle (innate immunity gene mRNA, RT-PCR). Format: in vivo, Sprague-Dawley (SD) rats. The following applies: SD rats, 40 mpk oral, 2 h before ip ALPK1 agonist, tissue 3 h later, compared with vehicle group.
Assay [3] deals with ALPK1-dependent innate immunity gene expression in PBMC. Kind of assay: Inhibition of ALPK1 in PBMC cells (innate immunity gene mRNA, RT-PCR). The settings on record: SD rats, 10 mpk oral, 2 h before ip ALPK1 agonist, blood 3 h later, compared with vehicle group. Format: in vivo, Sprague-Dawley (SD) rats. How it is done:
We examined whether ALPK1 inhibitors can suppress ALPK1-dependent activation of a set of such genes in rats. […] PBMCs were collected and gene expression analyzed, as described in more detail below.
After 3 hours administration of the ALPK1 agonist, the blood was collected from heart, and PBMC were extracted from each group.

Assay [4] relates to ALPK1-dependent NFκB reporter gene activation. The assay can be described thus: NFκB gene reporter alkaline phosphatase assay in HEK293 G9 cells. The settings on record: read-out: NFkB assay IC50. Format: cell-based, human. The procedure:
An alkaline phosphatase reporter assay system was used to measure inhibition of ALPK1-dependent NFκB reporter gene activation. Briefly, HEK293 cells stably expressing an NF-kB reporter (referred to herein as “G9 cells”) were maintained in DMEM as described above. For the assay, cells were seeded into 96-well plates at a density of 10,000 cells/well in Freestyle-M 293 Expression Medium (ThermoFisher), and allowed to attach overnight. […] NFkB gene activation was detected using the chromogenic substrate, para-nitrophenyl phosphate (pNPP) according to the manufacturer's protocols (pNPP Phosphatase Assay, Beyotine Biotechnology).

Setting [5] is: ADP-Heptose activated ALPK1, TIFA substrate, HTRF.

Counter-ions that a name gives are not always drawn. Like-named read-outs stand apart in the source and are kept apart here.

Chain of ALPK1 (Q96QP1 whole entry): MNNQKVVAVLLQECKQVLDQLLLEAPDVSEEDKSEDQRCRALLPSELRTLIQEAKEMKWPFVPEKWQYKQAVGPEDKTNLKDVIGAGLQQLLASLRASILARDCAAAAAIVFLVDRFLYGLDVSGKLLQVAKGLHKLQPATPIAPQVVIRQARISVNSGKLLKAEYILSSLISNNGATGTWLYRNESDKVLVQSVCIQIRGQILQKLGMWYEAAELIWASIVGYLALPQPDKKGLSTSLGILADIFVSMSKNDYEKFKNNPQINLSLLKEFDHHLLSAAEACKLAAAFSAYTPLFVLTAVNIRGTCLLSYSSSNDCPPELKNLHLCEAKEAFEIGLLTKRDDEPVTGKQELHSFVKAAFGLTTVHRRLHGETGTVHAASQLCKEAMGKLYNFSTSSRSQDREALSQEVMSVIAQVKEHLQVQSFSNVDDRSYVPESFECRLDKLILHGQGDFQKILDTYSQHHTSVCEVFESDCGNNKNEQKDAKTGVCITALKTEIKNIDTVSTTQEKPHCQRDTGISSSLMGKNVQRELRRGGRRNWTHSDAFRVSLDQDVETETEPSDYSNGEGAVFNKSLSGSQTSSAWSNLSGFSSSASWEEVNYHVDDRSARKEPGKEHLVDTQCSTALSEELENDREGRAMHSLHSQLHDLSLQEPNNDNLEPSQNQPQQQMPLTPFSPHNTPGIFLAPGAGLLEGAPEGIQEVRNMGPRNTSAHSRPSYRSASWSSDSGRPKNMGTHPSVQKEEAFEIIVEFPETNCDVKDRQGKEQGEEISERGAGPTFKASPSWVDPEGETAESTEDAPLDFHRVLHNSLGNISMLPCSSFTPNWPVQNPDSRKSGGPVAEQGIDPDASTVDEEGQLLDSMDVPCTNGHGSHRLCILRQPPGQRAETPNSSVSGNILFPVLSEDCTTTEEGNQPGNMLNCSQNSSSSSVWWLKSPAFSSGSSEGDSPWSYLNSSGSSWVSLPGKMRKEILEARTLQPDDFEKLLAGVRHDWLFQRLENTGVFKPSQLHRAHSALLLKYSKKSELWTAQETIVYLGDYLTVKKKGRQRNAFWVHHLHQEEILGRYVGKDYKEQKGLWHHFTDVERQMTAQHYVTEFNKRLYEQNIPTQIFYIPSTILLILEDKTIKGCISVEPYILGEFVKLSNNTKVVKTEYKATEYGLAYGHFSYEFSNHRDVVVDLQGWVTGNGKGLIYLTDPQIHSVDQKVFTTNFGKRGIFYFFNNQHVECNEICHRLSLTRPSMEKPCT

Broadly, the IC50 is the concentration that gives 50% inhibition. For `C#C[C@](C)(c1ccc(Cl)cc1)c1csc(NC(=O)c2ccc(N3CCNCC3)cc2)n1` (stereo in doubt) [B092, N-(4-(2-(4-chlorophenyl)but-3-yn-2-yl)thiazol-2-yl)-4-(piperazin-1-yl)benzamide], on ALPK1 (setting [5]), 219 nM corresponded to half-maximal inhibition (IC50).

On ALPK1, `C#C[C@@](C)(c1ccc(OC)cc1)c1csc(NC(=O)N2CC(CO)C2)n1` [A256, (S)-3-(hydroxymethyl)-N-(4-(2-(4-methoxyphenyl)but-3-yn-2-yl)thiazol-2-yl)azetidine-1-carboxamide] returned a 50% inhibitory concentration (IC50) of 43 nM.

On to `C#C[C@@](C)(c1ccc(F)cc1)c1csc(NC(=O)NCCO)n1` (stereo in doubt) [A283, 1-(4-(2-(4-fluorophenyl)but-3-yn-2-yl)thiazol-2-yl)-3-(2-hydroxyethyl)urea], for which the half-maximal inhibitory concentration (IC50) against ALPK1 was 550 nM.

Turning to `COc1ccc(C(C)(C)c2csc(NC(=O)NCCCCNc3ccccc3)n2)cc1` [A147, 1-(4-(2-(4-methoxyphenyl)propan-2-yl)thiazol-2-yl)-3-(4-(phenylamino)butyl)urea], 235 nM corresponded to half-maximal inhibition at ALPK1 (IC50).

For `C#C[C@@](C)(c1ccc(Cl)cc1)c1csc(NC(=O)c2c(F)cc(N3CCNCC3)cc2F)n1` [C008, (S)-N-(4-(2-(4-chlorophenyl)but-3-yn-2-yl)thiazol-2-yl)-2,6-difluoro-4-(piperazin-1-yl)benzamide], the IC50 in assay [1] worked out at 15 nM. Further, in assay [2], the “mRNA expression of aorta IL-6, CXCL-1, CXCL-10, CCL-2” value is reported as “significantly decreased”; the “mRNA expression of cardiac muscle TNF-a, IL-1b, IL-6, CXCL-1, CXCL-10, CXCL-11, CCL-2 and CCL-5” value was “significantly decreased”; the “mRNA expression of coronary artery TNF-α, CXCL-1, CCL-2 and CCL-7” value is “significantly decreased”. Further, in assay [3], the “mRNA expressions of PBMC CCL-7, CXCL-1, CXCL-10, CXCL-11, IL-1β, TNF-α and IL-6” value was “significantly decreased”.

Regarding `C#CC(C)(c1ccc(OC)cc1)c1csc(NC(=O)NC(C)c2ccc(N3CCNCC3)cc2)n1` (stereo not drawn) [A234, 1-(4-(2-(4-methoxyphenyl)but-3-yn-2-yl)thiazol-2-yl)-3-(1-(4-(piperazin-1-yl)phenyl)ethyl)urea], at ALPK1, half-maximal inhibition (IC50) required 36 nM.

With `COc1ccc(C(C)(C)c2csc(NC(=O)NCc3cnccn3)n2)cc1` [A007, 1-(4-(2-(4-methoxyphenyl)propan-2-yl)thiazol-2-yl)-3-(pyrazin-2-ylmethyl)urea], the IC50 against ALPK1 is 91 nM; in assay [4] (Homo sapiens, HEK293) it was 5580 nM.

Molecule `C#C[C@](C)(c1ccc(Cl)cc1)c1csc(NC(=O)N2CC(CO)C2)n1` [A257, (R)-N-(4-(2-(4-chlorophenyl)but-3-yn-2-yl)thiazol-2-yl)-3-(hydroxymethyl)azetidine-1-carboxamide] yielded a half-maximal inhibitory concentration (IC50) on ALPK1 of 246 nM.

With `COc1ccc(C(C)(C)c2csc(NC(=O)NCc3cc(F)c(C4CCNCC4)c(F)c3)n2)cc1` [A151, 1-(3,5-difluoro-4-(piperidin-4-yl)benzyl)-3-(4-(2-(4-methoxyphenyl)propan-2-yl)thiazol-2-yl)urea hydrochloride], in assay [4] (Homo sapiens, HEK293), the concentration for half-maximal inhibition (IC50) was determined as 950 nM.

In the case of `COc1ccc(C(C)(C)c2csc(NC(=O)N3CC(c4ccc(N5CCNCC5)cc4)C3)n2)cc1` [A233, N-(4-(2-(4-methoxyphenyl)propan-2-yl)thiazol-2-yl)-3-(4-(piperazin-1-yl)phenyl)azetidine-1-carboxamide], in assay [4] (Homo sapiens, HEK293), the IC50 was 330 nM.

In turn, `C#C[C@](C)(c1ccc(OC)cc1)c1csc(NC(=O)N2CC(CO)C2)n1` [A255, (R)-3-(hydroxymethyl)-N-(4-(2-(4-methoxyphenyl)but-3-yn-2-yl)thiazol-2-yl)azetidine-1-carboxamide] showed an IC50 on ALPK1 of 109 nM.

Turning to `C#CC(C)(c1ccc(Cl)cc1)c1csc(NC(=O)N2CCc3cc(N4CCNCC4)ccc3C2)n1` (stereo not drawn) [A281], in assay [4], the 50% inhibitory concentration (IC50) is 860 nM.

`C#C[C@@](C)(c1ccc(Cl)cc1)c1csc(NC(=O)N2CC(CO)C2)n1` [A258, (S)-N-(4-(2-(4-chlorophenyl)but-3-yn-2-yl)thiazol-2-yl)-3-(hydroxymethyl)azetidine-1-carboxamide] registered a 50% inhibitory concentration (IC50) at ALPK1 of 57 nM.

`C#C[C@@](C)(c1ccc(Cl)cc1)c1csc(NC(=O)c2ccc(N3CCNCC3)cc2)n1` (stereo in doubt) [B093, N-(4-(2-(4-chlorophenyl)but-3-yn-2-yl)thiazol-2-yl)-4-(piperazin-1-yl)benzamide]: the IC50 at ALPK1 (setting [5]) turned out to be 43 nM.

In turn, `C#CC(C)(c1ccc(Cl)cc1)c1csc(NC(=O)c2ccc(N3CCNCC3)cc2F)n1` (stereo not drawn) [B065, N-(4-(2-(4-chlorophenyl)but-3-yn-2-yl)thiazol-2-yl)-2-fluoro-4-(piperazin-1-yl)benzamide] displayed an IC50 at ALPK1 (setting [5]) of 34 nM.

As to `C#C[C@@](C)(c1ccc(Cl)cc1)c1csc(NC(=O)NCCO)n1` [A176, (S)-1-(4-(2-(4-chlorophenyl)but-3-yn-2-yl)thiazol-2-yl)-3-(2-hydroxyethyl)urea], the IC50 in assay [1] was 97 nM. The “mRNA expressions of PBMC CCL-2, CCL-7, CXCL-1, CXCL-10, CXCL-11 and IL-1β” value in assay [3] was “significantly decreased”.

With `COc1ccc(C(C)(C)c2csc(NC(=O)NCc3ccc(N4CCC(N)C4)nc3)n2)cc1` (stereo not drawn) [A199, 1-((6-(3-aminopyrrolidin-1-yl)pyridin-3-yl)methyl)-3-(4-(2-(4-methoxyphenyl)propan-2-yl)thiazol-2-yl)urea], in assay [4] (Homo sapiens, HEK293), the IC50 came out at 460 nM.

For `CC(C)(c1ccc(Br)cc1)c1csc(NC(=O)NCc2cccc(N3CCNCC3)c2)n1` [A005, 1-(4-(2-(4-bromophenyl)propan-2-yl)thiazol-2-yl)-3-(3-(piperazin-1-yl)benzyl)urea], the IC50 against ALPK1 is 97 nM; in assay [4] (Homo sapiens, HEK293), 3150 nM.

For `C#CC(C)(c1ccc(Cl)cc1)c1csc(NC(=O)c2ccc(N3CCNCC3)c(OC)c2)n1` (stereo not drawn) [B066, N-(4-(2-(4-chlorophenyl)but-3-yn-2-yl)thiazol-2-yl)-3-methoxy-4-(piperazin-1-yl)benzamide], at ALPK1 (setting [5]), the concentration for half-maximal inhibition (IC50) came out at 29 nM.

As to `COc1ccc(C(C)(CO)c2csc(NC(=O)NC(C)c3ccc(N4CCNCC4)cc3)n2)cc1` (stereo not drawn) [A235, 1-(4-(1-hydroxy-2-(4-methoxyphenyl)propan-2-yl)thiazol-2-yl)-3-(1-(4-(piperazin-1-yl)phenyl)ethyl)urea], the IC50 against ALPK1 is 61 nM.

`CC(C)(c1ccc(I)cc1)c1csc(NC(=O)NCc2cnc(N3CCNCC3)nc2)n1` [A178, 1-(4-(2-(4-iodophenyl)propan-2-yl)thiazol-2-yl)-3-((2-(piperazin-1-yl)pyrimidin-5-yl)methyl)urea] displayed a 50% inhibitory concentration (IC50) against ALPK1 of 42 nM.

`C#CC(C)(c1ccc(Br)cc1)c1csc(NC(=O)NCCN2CCNCC2)n1` (stereo not drawn) [A239, 1-(4-(2-(4-bromophenyl)but-3-yn-2-yl)thiazol-2-yl)-3-(2-(piperazin-1-yl)ethyl)urea] yielded a 50% inhibitory concentration (IC50) at ALPK1 of 20 nM.

As for `COc1ccc(C(C)(C)c2csc(NC(=O)NCc3cc(F)c(N4CCNCC4)cc3F)n2)cc1` [A231, 1-(2,5-difluoro-4-(piperazin-1-yl)benzyl)-3-(4-(2-(4-methoxyphenyl)propan-2-yl)thiazol-2-yl)urea hydrochloride], in assay [4] (Homo sapiens, HEK293), the 50% inhibitory concentration (IC50) worked out at 3360 nM.
